The source of these data is paper PMC6906431, “Selective small molecule PARG inhibitor causes replication fork stalling and cancer cell death” (Nature Communications, 2019).

Values joined by “and” are separate entries in the source; they are usually repeats but may differ in a detail not shown here. Equal values may be shown once. Read-outs that look alike come from different tables or passages of the source. Bounds are passed on as bounds.

The nature of series [1]: Sulforhodamine B (SRB) cytotoxicity assay. The note with it: human, PC3 cells, Viability; for viability at 72 h, 1.95 µM: log [concentration] μM 0.290702; for viability at 72 h, 3.91 µM: log [concentration] μM 0.591732; for viability at 72 h, 7.81 µM: log [concentration] μM 0.892818; for viability at 72 h, 15.63 µM: log [concentration] μM 1.19382; for viability at 72 h, 31.25 µM: log [concentration] μM 1.49485; for viability at 72 h, 62.5 µM: log [concentration] μM 1.79588; for viability at 72 h, 125 µM: log [concentration] μM 2.09691; for viability at 72 h, 250 µM: log [concentration] μM 2.39794; for viability at 72 h, 500 µM: log [concentration] μM 2.69897; for viability at 72 h, 1000 µM: log [concentration] μM 3; for viability at 72 h, 2000 µM: log [concentration] μM 3.30103. For orientation: Sulforhodamine B stains cellular protein and so reports cell mass.

For the next series, the system named is MCF-7 cells. Put plainly: Clonogenic survival assay. Format: cell-based, human. On the procedure: (§1) Fig. 6 Selective inhibition of PARG by xanthine derivative JA2131. a Clonogenic survival assays of PC3, MDA-MB-231, and MCF-7 cells treated with PARGi. Cells were treated with either DMSO or 10 µM JA2131 for 2 h, irradiated with 3 Gy (MDA-MB-231 and MCF-7), 7 Gy (PC3) IR and grown for ~2 weeks, then colonies were fixed with methanol and stained with crystal violet. The results of three independent experiments are shown. Error bars = the standard error of the mean (SEM). b dose-response of JA2131 in MDA-MB-231 cells with and without IR. Cells were treated with designated concentrations of JA2131 for 2 h and then either left untreated or exposed to 3 Gy IR and allowed to recover for 1 h before lysis. Total protein was immunoblotted with anti-PAR antibody (upper panel), stripped and reprobed with anti-PCNA as a loading control. c MDA-MB-231 cells with stable scrambled shRNA (WT) or stable PARG shRNA, knockdown (KD), were treated with 5 μM JA2131 for 2 h, lysed and then total lysates were immunoblotted for anti-PAR (upper panel) followed by anti-PARG (upper middle panel), anti-PARP1 (lower middle panel) and anti-actin (bottom panel) antibody. […] Stable cells with scramble shRNA (control) and shPARG (PARG-KD) cells were treated with an increasing concentration of JA2131 for growth inhibitory IC50 determination. The data was normalized against 100% survival at the lowest inhibitor concentration. Error bars show the percent coefficient of variation. Equivalent concentrations of DMSO were used as a negative control. e The cytotoxicity of JA2131 along with PDD, Veliparib and Doxorubicin against MRC-5 cells. Error bars show the percent coefficient of variation. f CETSA for in-cell JA2131 target engagement. Normalized anti-PARG western blot intensities of three independent experiments were fitted as above and the estimated aggregation temperature (Tagg) is shown in the tabulated insert. Source Data are provided as a Source Data file.
(§2) PC3, MDA-MB-231 cells were maintained in RPMI 1640, MCF-7 cells in Eagle’s Minimum Essential Medium (EMEM), MRC-5 cells in Eagle’s Minimum Essential Medium and Hela and U2OS cells in Dulbecco’s modified Eagle’s high glucose medium (DMEM) supplemented with 10% (vol/vol) fetal bovine serum (FBS) and 1% antibiotic/antimycotic (Lonza) in a humidified incubator with 10% CO2. All cell lines were purchased from ATCC and regularly checked for mycoplasma and cell authentication. SUM 149PT cells were cultured in F-12 Hams (Gibco) supplemented with 5% fetal bovine serum, insulin, and hydrocortisone. Colony formation assays were carried out in 6-well plates, 500 cells were used per well and following designated treatment, and colonies were grown for 2 weeks. Cells were fixed with methanol (100%), stained with crystal violet and analyzed using a GelCount instrument (Oxford Optronix Ltd). Crystal Violet C6158 was purchased from Sigma. PARG knockdown cells were generated by infecting MDA-MB-231 cells with shPARG lentiviral particles (sc-106355-V, Santa Cruz Biotechnology), which contain a pool of three shRNA plasmids. After 24 h infection, 3 µg/ml puromycin (Invitrogen) was added and antibiotic-resistant cells were further expanded and used for experimentation. Sequence-1; hairpin sequence: […], sense: […]tt, Antisense: […]tt. Sequence-2; hairpin sequence, […]-[…], sense: […]tt, antisense: […]tt. Sequence-3; hairpin sequence: […]-[…], sense: […]tt, antisense: […]-GGUUUCCtt. Control cells were generated using the same process except that scramble lentiviral particles with scrambled sequences were used (sc-108080).
(§3) Supplementary Fig. 8: Clonogenic survival of cells in the presence of PARGi and PARPi (a)
(§4) Clonogenic survival of PC3 cells in response to indicated compounds. ( b) Clonogenic survival of
(§5) MDA-MB-231 cells in response to i ndicated compounds. (c) Clonogenic survival of MCF -7 cells
(§6) in response to indicated compounds. […]

The subject of series [2] is PC3 cells. Nature of the series: Clonogenic survival assay. Format: cell-based, human. As to conditions: PC3. As to the method:
as §1, §2, §3, §4, §5, §6

A further series concerns MDA-MB-231 cells. Nature of the series: Clonogenic survival assay. Format: cell-based, human. The note with it: MDA-MB-231. On the procedure:
as §1, §2, §3, §4, §5, §6

Series [3] concerns PC3 cells. Put plainly: Sulforhodamine B (SRB) cytotoxicity assay. The note with it: Homo sapiens, PC-3, 72 h, without IR.
For another series, the system named is MRC-5 cells. Put plainly: Sulforhodamine B (SRB) cytotoxicity assay. In kind it is cell-based, human. The note with it: Homo sapiens, MRC5, 72 h. As to the method:
as §1

A short description of series [4]: Sulforhodamine B (SRB) cytotoxicity assay. Format: cell-based, human. The note with it: human, MRC-5 cells. As to the method: as §1
A further series deals with PARG. As to conditions: cited from earlier work.

In general, viability refers to a read-out of living cells in per cent, often relative to untreated cells. Consider `O=C(c1cc(Cc2n[nH]c(=O)c3ccccc23)ccc1F)N1CCN(C(=O)C2CC2)CC1` [Olaparib, reference compound], for which, in series [1] (+IR 7.0 Gy), the viability at 72 h, 1.95 µM amounted to 100%; the viability at 72 h, 3.91 µM was 101%; the viability at 72 h, 7.81 µM is 101%; the viability at 72 h, 15.63 µM worked out at 99.1%. In series [1] (+IR 7.0 Gy), the viability at 72 h, 31.25 µM was 79.9%; the viability at 72 h, 62.5 µM came to 52.4%; the viability at 72 h, 125 µM is 32.6%; the viability at 72 h, 250 µM is 16.5%. In series [1] (+IR 7.0 Gy), the viability at 72 h, 500 µM stood at 11.1%; the viability at 72 h, 1000 µM was 11.4%; the viability at 72 h, 2000 µM worked out at 10.8%. Besides, in series [1] (-IR), the viability at 72 h, 1.95 µM turned out to be 100%; the viability at 72 h, 3.91 µM came out at 102%; the viability at 72 h, 7.81 µM stood at 94.4%; the viability at 72 h, 15.63 µM was determined as 77.7%. In series [1] (-IR), the viability at 72 h, 31.25 µM was 53.3%; the viability at 72 h, 62.5 µM worked out at 34.7%; the viability at 72 h, 125 µM is 20.2%; the viability at 72 h, 250 µM is 9.43%. In addition, in series [1] (-IR), the viability at 72 h, 500 µM stood at 5.75%; the viability at 72 h, 1000 µM was found to be 6.34%; the viability at 72 h, 2000 µM was 6.26%. In addition, in the series with MCF-7 cells (Experiment-1, replicates 1-6), the “colony count (clonogenic survival, raw replicate data, Supplementary Figure 8)” value (“colony count” for short) was 14 and 16 and 15 and 5 and 13 and 26. Further, the “colony count” value in the series with MCF-7 cells (Experiment-2, replicates 1-6) is 25 and 5 (2×) and 4 and 1 and 2. In addition, the “colony count” value in the series with MCF-7 cells (Experiment-3, replicates 1-6) is 18 (2×) and 15 and 17 and 16 and 5. Also, the “colony count” value in the series with PC3 cells [2] (Experiment-1, replicates 1-6) was 5 and 10 and 21 and 13 and 39 and 16. The “colony count” value in the series on PC3 cells [2] (Experiment-2, replicates 1-6) is 6 (3×) and 1 and 0 and 11. Moreover, the “colony count” value with PC3 cells [2] (Experiment-3, replicates 1-6) is 0 (2×) and 3 (3×) and 1. Moreover, the “colony count” value in the series on MDA-MB-231 cells (Experiment-1, replicates 1-6) is 0 and 1 (2×) and 2 (2×) and 3. Further, in the series with MDA-MB-231 cells (Experiment-2, replicates 1-6), the “colony count” value is 1 (3×) and 2 (2×) and 3. Further, the “colony count” value with MDA-MB-231 cells (Experiment-3, replicates 1-6) was 2 and 1 (3×) and 4 and 3.
Broadly, the IC50 is the concentration needed to halve the response being measured. For the compound `COc1cccc2c1C(=O)c1c(O)c3c(c(O)c1C2=O)C[C@@](O)(C(=O)CO)C[C@@H]3O[C@H]1C[C@H](N)[C@H](O)[C@H](C)O1` [Doxorubicin], the IC50 with PC3 cells [3] worked out at 810 ± 300 nM; in the series with MRC-5 cells it was 741 ± 100 nM. Also, in series [1] (without IR, log [concentration] μM 0.194), the viability at 72 h, 1.56 µM amounted to 17.2%. Besides, the viability at 72 h, 3.13 µM in series [1] (without IR, log [concentration] μM 0.495) is 11.1%. Further, the viability at 72 h, 6.25 µM in series [1] (without IR, log [concentration] μM 0.796) worked out at 10.1%. In addition, in series [1] (without IR, log [concentration] μM 1.097), the viability at 72 h, 12.5 µM was 9.95%. For the same compound, the viability at 72 h, 25 µM in series [1] (without IR, log [concentration] μM 1.398) was 9.74%. In addition, in series [1] (without IR, log [concentration] μM 1.699), the viability at 72 h, 50 µM worked out at 9.95%. For the same compound, in series [1] (without IR, log [concentration] μM 2), the viability at 72 h, 100 µM came out at 10.6%. Further, the viability at 72 h, 200 µM in series [1] (without IR, log [concentration] μM 2.301) is 13.8%. The viability at 72 h, 0.78 µM in series [1] (without IR, log [concentration] μM -0.107) was 58.5%. For the same compound, the viability at 72 h, 0.39 µM in series [1] (without IR, log [concentration] μM -0.408) came to 95%. Moreover, the viability at 72 h, 0.098 µM in series [1] (without IR, log [concentration] μM -1.009) was 100%. In addition, the viability at 72 h, 1.55 µM in series [4] (log [concentration] μM 0.19) amounted to 50.4%. Besides, in series [4] (log [concentration] μM 0.49), the viability at 72 h, 3.09 µM turned out to be 47.4%. The viability at 72 h, 6.31 µM in series [4] (log [concentration] μM 0.8) was 50%. Besides, the viability at 72 h, 12.6 µM in series [4] (log [concentration] μM 1.1) is 50%. Further, in series [4] (log [concentration] μM 1.4), the viability at 72 h, 25.1 µM came to 45.6%. The viability at 72 h, 0.776 µM in series [4] (log [concentration] μM -0.11) was 71.7%. Besides, the viability at 72 h, 0.389 µM in series [4] (log [concentration] μM -0.41) is 96.5%. Further, in series [4] (log [concentration] μM -0.71), the viability at 72 h, 0.195 µM is 100%.
For the compound `O=C(OC[C@H]1O[C@@H](OC(=O)c2cc(O)c(O)c(OC(=O)c3cc(O)c(O)c(O)c3)c2)[C@H](OC(=O)c2cc(O)c(O)c(OC(=O)c3cc(O)c(O)c(O)c3)c2)[C@@H](OC(=O)c2cc(O)c(O)c(OC(=O)c3cc(O)c(O)c(O)c3)c2)[C@@H]1OC(=O)c1cc(O)c(O)c(OC(=O)c2cc(O)c(O)c(O)c2)c1)c1cc(O)c(O)c(OC(=O)c2cc(O)c(O)c(O)c2)c1` [Gallotannin], the IC50 in the series with PARG (read-out: IC50) was below 5000 nM.
On to `Nc1ncnc2c1ncn2[C@@H]1O[C@H](CO[P@](=O)(O)O[P@@](=O)(O)OC[C@H]2NC[C@H](O)[C@@H]2O)[C@@H](O)[C@H]1O` [ADP-HPD, adenosine diphosphate (hydroxymethyl)pyrrolidinediol, reference compound], for which, in the series on PARG (read-out: IC50, published values), the IC50 is 100 to 1400 nM.
